Results on 18 compounds are retold here after patent publication US20250066323A1, “INHIBITORS OF HUMAN RESPIRATORY SYNCYTIAL VIRUS AND METAPNEUMOVIRUS” (priority 2023, published 2025).

Structures are written as SMILES.

The test system of one assay is RSV-A2-GFP. Briefly: RSV-A2-GFP viral replication assay. The assay is classed as cell-based, Human Respiratory Syncytial Virus. To be noted: human respiratory syncytial virus, Calu-1, 96 h, read-out: RSV EC50, Calu-1 cells, RSV-A2-GFP MOI=1.2, 96 hrs, GFP-expressing cells counted. From the text: GFP sequence was derived from pJTI™ R4 Dest CMV N-EmGFP pA Vector (Invitrogen) and was cloned into the intergenic sequence between wild-type RSV-A2 P and M genes using standard recombineering techniques. Recombinant RSV-A2-GFP was propagated in Hep2 cells (human cells contains HeLa marker chromosomes and were derived via HeLa contamination, ATCC CCL-23) with infection Multiplicity of Infection (MOI) of 0.1. Virus was harvested 3 days after infection by collecting all culture material and freeze-thaw the viral culture in liquid nitrogen for at least 5 times. To generating virus working stocks, thaw frozen samples in 37° C. water bath then centrifuge at 218 g for 15 min at 4° C. Add 1/10 of 10×SPG (Biological Industries 06-3061-01-5A), mix, aliquot supernatant, and quick-freeze in liquid nitrogen then transfer to −80° C. freezer for storage. Virus titer was determined by automated plaque assay in HEp-2 cells following methods described previously (Wen Z. et al.; J Virol Methods. 2019 January; 263:88-95).
Calu-1 cells (human lung epidermoid carcinoma, ATCC HTB-54) assay ready freezedown (ARF generation described separately) were used in assays. Compound plates were prepared by dispensing compounds dissolved in DMSO into wells of 384 well coming 3985 polystyrene flat clear bottom optical imaging microplates (202.5 nL/well) using an ECHO acoustic dispenser. Each compound was tested in a 10-point serial 3-fold dilution (typical final concentrations: 403 nM-0.02 nM and 40.3 nM-0.002 nM). […] To set up the assay, thaw ARF vial(s) in 37° C. water bath until small ice crystal remain and resuspend into assay media (DMEM containing 2% FBS, 100 U/ml Penicillin-Streptomycin). Count cells using default parameters on ViCell and dilute to 20,000 cells per ml in assay media. Add RSV GFP to cells at 24,000 pfu/ml (MOI=1.2). Mix by gentle inversion. 10 μl/well of 100% DMSO was dispensed to CellTiter-Glo (CTG) assay Max_E controls wells. Dispense cells at 50 μl/well using Bravo and 50 μl filtered tips into compound plates. Cover plates with MicroClime lids loaded with 7.5 ml of assay media to minimize evaporation. Incubate at 37 degrees C. and 5% CO2 for 96 hrs. Following incubation, distinct, GFP-expressing cells are counted using an Acumen imaging system with appropriate settings. A same-well CTG assay is performed by adding 10 μl/well reconstituted CellTiter-Glo reagent (Promega G7573) and reading plates on PerkinElmer Envision according to manufacturer's instructions. Raw data were loaded and analyzed in ActivityBase. Antiviral IC50 and cytotoxicity CC50 values were determined using a 4 parameter logistic fit based on the Levenberg-Marquardt algorithm. Model: 205-4 Parameter Logistic.
Calu-1 cells were purchased from ATCC (Cat #HTB-54) and are expanded in growth media (DMEM containing 10% FBS, 100 U/ml Penicillin-Streptomycin). To make ARF, remove and discard cell culture media, briefly rinse the cell layer with PBS to remove all traces of serum. Add 2.5 ml of TrypLE Express solution and incubate until cells dislodge, then add growth media and resuspend the cells by gentle pipetting. Count cells for concentration and determine viability using a ViCell. Centrifuge at RT, 300 g for 5 min to pellet cells. Gently aspirate supernatant, flick pellet to loosen cells. Resuspend cells in an appropriate volume of freezing medium (DMEM containing 10% DMSO, 10% FBS, 100 U/ml Penicillin-Streptomycin) to achieve 5×10^6/ml. Transfer 1 ml of cell suspension to freezing vials. Put vials to CoolCell cryopreservation container and place CoolCell container upright in a −80° C. freezer overnight before transferring vials to liquid nitrogen vapor for storage.
As for `Cn1nc(-c2cscn2)cc1C(=O)NCC(O)(c1cc2c(c(-c3ccc(F)cc3)n1)OCC2(C)C(N)=O)C(F)(F)F` (single isomer, unassigned) [Example 30-B, 7-(4-fluorophenyl)-3-methyl-5-(1,1,1-trifluoro-2-hydroxy-3-(1-methyl-3-(thiazol-4-yl)-1H-pyrazole-5-carboxamido)propan-2-yl)-2,3-dihydrofuro[2,3-c]pyridine-3-carboxamide], the EC50 was less than 10 nM.
On the same count and under the same terms, next, `Cn1nc(-n2cccn2)cc1C(=O)NCC(O)(c1cc(C(C)(C)N)cc(-c2ccc(F)cc2)n1)C1CC1` (single isomer, unassigned) [Example 35-B, N-(2-(4-(2-aminopropan-2-yl)-6-(4-fluorophenyl)pyridin-2-yl)-2-cyclopropyl-2-hydroxyethyl)-1′-methyl-1′H-[1,3′-bipyrazole]-5′-carboxamide]: less than 10 nM; `Cn1nc(-n2cccn2)cc1C(=O)NCC(O)(c1cc(C(C)(C)N)cc(-c2ccc(F)cc2)n1)C(F)(F)F` (single isomer, unassigned) [Example 36-A, N-(2-(4-(2-aminopropan-2-yl)-6-(4-fluorophenyl)pyridin-2-yl)-3,3,3-trifluoro-2-hydroxypropyl)-1′-methyl-1′H-[1,3′-bipyrazole]-5′-carboxamide]: less than 10 nM.
The same measure, in the same setting: next, `Cn1nc(-n2cccn2)cc1C(=O)NCC(C)(O)c1cc(C(C)(C)N)cc(-c2ccc(C(F)(F)F)cc2)n1` (single isomer, unassigned) [Example 37-B, N-(2-(4-(2-aminopropan-2-yl)-6-(4-(trifluoromethyl)phenyl)pyridin-2-yl)-2-hydroxypropyl)-1′-methyl-1′H-[1,3′-bipyrazole]-5′-carboxamide]: less than 10 nM.

Still in this assay, the particulars now being: read-out: RSV EC50; Calu-1 cells, RSV-A2-GFP MOI=1.2, 96 hrs, GFP-expressing cells counted.
With `Cn1nc(-n2cccn2)cc1C(=O)NCC(C)(O)c1cc2c(c(-c3ccc(F)cc3)n1)OCC2(C)C(N)=O` (single isomer, unassigned) [Example 29-A, 7-(4-fluorophenyl)-5-(2-hydroxy-1-(1′-methyl-1′H-[1,3′-bipyrazole]-5′-carboxamido)propan-2-yl)-3-methyl-2,3-dihydrofuro[2,3-c]pyridine-3-carboxamide], the EC50 is 10 to 100 nM.
On the same count and under the same terms, next, `Cn1nc(-n2cccn2)cc1C(=O)NCC(C)(O)c1cc2c(c(-c3ccc(F)cc3)n1)OCC2(C)C(N)=O` (single isomer, unassigned) [Example 29-B, 7-(4-fluorophenyl)-5-(2-hydroxy-1-(1′-methyl-1′H-[1,3′-bipyrazole]-5′-carboxamido)propan-2-yl)-3-methyl-2,3-dihydrofuro[2,3-c]pyridine-3-carboxamide]: greater than 100 nM.
On to `Cn1nc(-n2cccn2)cc1C(=O)NCC(C)(O)c1cc2c(c(-c3ccc(F)cc3)n1)OCC2(C)C(N)=O` (single isomer, unassigned) [Example 29-C, 7-(4-fluorophenyl)-5-(2-hydroxy-1-(1′-methyl-1′H-[1,3′-bipyrazole]-5′-carboxamido)propan-2-yl)-3-methyl-2,3-dihydrofuro[2,3-c]pyridine-3-carboxamide], for which the EC50 was less than 10 nM.
On the same count and under the same terms, next, `Cn1nc(-n2cccn2)cc1C(=O)NCC(C)(O)c1cc2c(c(-c3ccc(F)cc3)n1)OCC2(C)C(N)=O` (single isomer, unassigned) [Example 29-D, 7-(4-fluorophenyl)-5-(2-hydroxy-1-(1′-methyl-1′H-[1,3′-bipyrazole]-5′-carboxamido)propan-2-yl)-3-methyl-2,3-dihydrofuro[2,3-c]pyridine-3-carboxamide]: 10 to 100 nM; `Cn1nc(-c2cscn2)cc1C(=O)NCC(C)(O)c1cc(C(C)(C)C(N)=O)cc(-c2ccc(F)cc2)n1` (single isomer, unassigned) [Example 31-A, N-(2-(4-(1-amino-2-methyl-1-oxopropan-2-yl)-6-(4-fluorophenyl)pyridin-2-yl)-2-hydroxypropyl)-1-methyl-3-(thiazol-4-yl)-1H-pyrazole-5-carboxamide]: greater than 100 nM; `Cn1nc(-c2cscn2)cc1C(=O)NCC(C)(O)c1cc(C(C)(C)C(N)=O)cc(-c2ccc(F)cc2)n1` (single isomer, unassigned) [Example 31-B, N-(2-(4-(1-amino-2-methyl-1-oxopropan-2-yl)-6-(4-fluorophenyl)pyridin-2-yl)-2-hydroxypropyl)-1-methyl-3-(thiazol-4-yl)-1H-pyrazole-5-carboxamide]: less than 10 nM.
Still for that read-out and setting: the same measure for `Cn1nc(-c2cscn2)cc1C(=O)NCC(C)(O)c1cc(C(C)(C)O)cc(-c2ccc(F)cc2)n1` (single isomer, unassigned) [Example 32-A, N-(2-(6-(4-fluorophenyl)-4-(2-hydroxypropan-2-yl)pyridin-2-yl)-2-hydroxypropyl)-1-methyl-3-(thiazol-4-yl)-1H-pyrazole-5-carboxamide]: greater than 100 nM; for `Cn1nc(-c2cscn2)cc1C(=O)NCC(C)(O)c1cc(C(C)(C)O)cc(-c2ccc(F)cc2)n1` (single isomer, unassigned) [Example 32-B, N-(2-(6-(4-fluorophenyl)-4-(2-hydroxypropan-2-yl)pyridin-2-yl)-2-hydroxypropyl)-1-methyl-3-(thiazol-4-yl)-1H-pyrazole-5-carboxamide]: less than 10 nM; for `CC(N)C(C)(C)c1cc(-c2ccc(F)cc2)nc(C(C)(O)CNC(=O)c2cc(-n3cccn3)nn2C)c1` (single isomer, unassigned) [Example 33-A, N-(2-(4-(3-amino-2-methylbutan-2-yl)-6-(4-fluorophenyl)pyridin-2-yl)-2-hydroxypropyl)-1′-methyl-1′H-[1,3′-bipyrazole]-5′-carboxamide]: greater than 100 nM.
On the same count and under the same terms, the same measure for `CC(N)C(C)(C)c1cc(-c2ccc(F)cc2)nc(C(C)(O)CNC(=O)c2cc(-n3cccn3)nn2C)c1` (single isomer, unassigned) [Example 33-B, N-(2-(4-(3-amino-2-methylbutan-2-yl)-6-(4-fluorophenyl)pyridin-2-yl)-2-hydroxypropyl)-1′-methyl-1′H-[1,3′-bipyrazole]-5′-carboxamide]: greater than 100 nM; for `CC(N)C(C)(C)c1cc(-c2ccc(F)cc2)nc(C(C)(O)CNC(=O)c2cc(-n3cccn3)nn2C)c1` (single isomer, unassigned) [Example 33-C, N-(2-(4-(3-amino-2-methylbutan-2-yl)-6-(4-fluorophenyl)pyridin-2-yl)-2-hydroxypropyl)-1′-methyl-1′H-[1,3′-bipyrazole]-5′-carboxamide]: less than 10 nM.
For `CC(N)C(C)(C)c1cc(-c2ccc(F)cc2)nc(C(C)(O)CNC(=O)c2cc(-n3cccn3)nn2C)c1` (single isomer, unassigned) [Example 33-D, N-(2-(4-(3-amino-2-methylbutan-2-yl)-6-(4-fluorophenyl)pyridin-2-yl)-2-hydroxypropyl)-1′-methyl-1′H-[1,3′-bipyrazole]-5′-carboxamide], the half-maximal effective concentration (EC50) is less than 10 nM.
Still for that read-out and setting: the same measure for `Cn1nc(-n2cccn2)cc1C(=O)NCC(O)c1cc(C(C)(C)N)cc(-c2ccc(F)cc2)n1` (single isomer, unassigned) [Example 34-A, N-(2-(4-(2-aminopropan-2-yl)-6-(4-fluorophenyl)pyridin-2-yl)-2-hydroxyethyl)-1′-methyl-1′H-[1,3′-bipyrazole]-5′-carboxamide]: less than 10 nM; for `Cn1nc(-n2cccn2)cc1C(=O)NCC(O)c1cc(C(C)(C)N)cc(-c2ccc(F)cc2)n1` (single isomer, unassigned) [Example 34-B, N-(2-(4-(2-aminopropan-2-yl)-6-(4-fluorophenyl)pyridin-2-yl)-2-hydroxyethyl)-1′-methyl-1′H-[1,3′-bipyrazole]-5′-carboxamide]: greater than 100 nM.

In general, EC50 refers to the midpoint of the concentration-response curve.
